Test results from patent publication US20120028288A1, “Method for Measuring Cell Motility and System Therefor” (priority 2005, published 2012).
“Also recorded” adds a separate entry of the source.

B1: CCL5: Recombinant Human RANTES (CCL5; Regulation upon Activation Normal T cell Express Sequence), purchased from PeproTech (protein, UniProt P13501 24-91, looked up)
C-C motif chemokine 5: SPYSSDTTPCCFAYIARPLPRAHIKEYFYTSGKCSNPAVVFVTRKNRQVCANPEKKWVREYINSLEMS
B2: CCL3: Recombinant Human MIP-1 alpha (CCL3; Macrophage Inflammatory Protein-1 alpha), purchased from PeproTech (protein, UniProt P10147 24-92, looked up)
C-C motif chemokine 3: SLAADTPTACCFSYTSRQIPQNFIADYFETSSQCSKPGVIFLTKRSRQVCADPSEEWVQKYVSDLELSA

Experiments:
[1] = system: eosinophils obtained from blood samples of normal subjects; experiment: Eosinophil chemotactic experiment toward various chemotactic factors (time-lapse tracking; VD plot, CRT and CLT analysis); settings: for rate of cells having a high specific motility in the concentration gradient direction in the VD plot / Chemotaxis Lifetime (CLT) / migration duration time, in words / Chemotactic Response Time (CRT) / time course of migration start, in words: normal subject eosinophils; for rate of cells having a high specific motility in the concentration gradient direction in the VD plot: CCL3, CCL5 5 μM, CXCL12, fMLP, PGD2 1 μM, vs control without factor (N.C.); for Chemotaxis Lifetime (CLT) / migration duration time, in words / Chemotactic Response Time (CRT) / time course of migration start, in words: concentration gradient of factor; for Chemotactic Response Time (CRT) / time course of migration start, in words: ACR viewed at 5 and 45 minutes
Procedure: Blood samples were obtained from patients and normal subjects, after a confirmation of informed consent. The blood samples were subjected to hemolytic reaction by water treatment and centrifugal separation, repeated twice, and thereafter a magnetic cell separation method was conducted so as to separate eosinophil therefrom. MACS (Miltenyi Biotec GmbH, Germany) was used for the magnetic cell separation, and the separation was performed by the negative selection method using anti-human CD3, CD14, CD16, and CD19 antibody-labeled paramagnetic microbeads. The magnetic cell separation method was conducted pursuant to the manual of Miltenyi Biotec GmbH. The cells obtained were washed with PBS, and thereafter suspended in RPMI-HEPES culture medium containing 1% FCS at the concentration of 5×10^6 cells/ml, and used for the subsequent experiment.
Structural setting of the system and the measuring method were carried out according to the aforementioned procedure.
In the measurement, the observation support unit of the system was filled up with RPMI-HEPES medium containing 1% FCS, and maintained at 37° C. to have the cells and the chemotactic factor being injected, and thereafter, the state of the cells was subjected to the time-lapse imaging. […] Imaging was performed at time-lapse intervals of one minute, and twelve samples at the maximum per one holder were subjected to the imaging in parallel.
The aforementioned program was used for the identification and tracking of the cell. […] With this software, when a user highlighted an area in the image as an analysis target, the cells in the area were identified and tracking was executed. Automatic cell tracking was performed according to the following procedure; a positional change in the time-lapse image was corrected, and then a position of the cell being the closest in the adjacent time-frame photo was sequentially designated and stored. Since an error might be included in the automatic cell tracking, the migratory pathway of the cell being obtained was appropriately corrected based on a visual judgment by a human. […] According to the obtained migratory pathway information of the cells, one by one, time-series data such as the position, velocity, and directionality of the cells was acquired. In order to avoid exerting an effect of artificial bias on the data, a third person, who was not informed of the details of the experiment, conducted the cell identification and tracking works by using the present software.
VD plot (Velocity-Direction plot) was obtained by calculating median values, as to the values of the time-series data of the velocity and directionality of individual cells, plotting the median value of velocity on the vertical axis and the median value of directionality on the horizontal axis. A gate was set on the graph surface, indicating an index of the cellular chemotaxis, and a rate of the cells included in the gate was obtained. Mann-Whitney U-test was employed for a difference test concerning the rate of the cells.
In the calculation of Chemotactic Response Time (CRT) and of Chemotaxis Lifetime (CLT) of the cell, an Exponential Moving Average (EMA) was calculated based on time-series data of the cell migration velocity, and the cellular chemotaxis was defined by the state where the value of EMA exceeded a certain threshold. In other words, CRT was a time period from start of the measurement until the time when the EMA firstly exceeded the threshold, and an elapsed time from the time when EMA firstly exceeded the threshold until it fell below the threshold was CLT.

[2] = system: eosinophils from normal, allergy/atopy and asthma patient donors; experiment: Chemotaxis analysis of eosinophils of allergy/atopy and asthma patients compared with normal subjects (TAXIScan; VD plot, CRT and CLT analysis)

| Molecule | rate of cells having a high specific motility in the concentration gradient direction in the VD plot [1] | Chemotaxis Lifetime (CLT) / migration duration time, in words [1] | Chemotactic Response Time (CRT) / time course of migration start, in words [1] | share of eosinophils that migrated according to the CRT analysis ([1]; normal subjects) | rate of cells that continued migration for five minutes or more (CLT analysis), patients compared to normal subjects ([2]; allergy/atopy patients and asthma patients vs normal subjects) | cell motility from VD plot, asthma patients (III) compared to normal subject (I) ([2]; eosinophils of asthma patients, PGD2 or fMLP 1 μM gradient) | CRT analysis: difference between patient groups and normal subjects ([2]; groups I, II, III) |
| --- | --- | --- | --- | --- | --- | --- | --- |
| CSCC[C@H](NC=O)C(=O)N[C@@H](CC(C)C)C(=O)N[C@@H](Cc1ccccc1)C(=O)O [fMLP, N-formyl-methionyl-leucyl-phenylalanine] | little difference from the control | most of the cells stopped migration within 15 minutes; also recorded: relatively shorter than the other factors | started moving gradually as time advanced | about half | not found a significant difference | significant difference | not a large difference |
| B1 | little difference from the control | long lifetime tendency | hardly started migration; also recorded: turned up gradually after lapse of approximately one hour |  |  |  |  |
| B2 | high motility | short relative to CCL5 or CXCL12 | started moving gradually as time advanced |  |  |  |  |
